Legend:
[1] = tested on: A2780 ovarian cancer cell line; test: Cytotoxicity against A2780 ovarian cancer cell line (Coulter counter cell count, Example 10); format: cell-based, human; details: 24 hours exposure, further 72 h growth, stock solutions in deionised water
Protocol: Some compounds were tested for cytotoxicity against the A2780 ovarian cancer cell line as follows.
(§1) The human ovarian cells were added at a density of 1×10^4 cells per well to 24-well tissue culture trays (Falcon Plastic, Becton Dickenson, Lincon Park, N.J., USA) and allowed to grow for 72 hours before addition of the Ru(II) arene complexes. Stock solutions of the ruthenium compounds were made up fresh in deionised water and sonicated to ensure complete dissolution. These stock solutions were diluted with media to give final concentrations ranging between 0.1 and 100 μM. All compounds were evaluated at each concentration in duplicate wells, and complete assays were repeated a minimum of three times. Cisplatin or carboplatin was employed as a positive and comparative control in each experiment. After 24 hours exposure the drug-containing medium was removed, the cells washed with phosphate buffered saline (PBS) and fresh medium was added. Cell number was assessed after a further 72 h growth using s Coulter counter (Coulter Electronics Ltd, Luton, UK) and the IC50 values (concentration of drug causing 50% growth inhibition) calculated by linear regression analysis comparing the inhibitory effects of the drugs against the growth of untreated cells.

A549 cancer cell line = test: Inhibitory growth activity against A549 cancer cell line (sulforhodamine B assay, Example 11); format: cell-based; details: 24 hours exposure, 96 hours recovery, 0.5% DMSO
Protocol: (§2) Other compounds were tested for inhibitory growth activity against the A2780 and A549 cancer cell lines as follows. Each drug was tested for activity at six different concentrations (100 μM, 50 μM, 10 μM, 5 μM, 1 μM and 0.1 μM) and each concentration was tested in triplicate, relative to a cisplatin control.
(§3) The A2780 cancer cell line was maintained by growing the cells in RPMI media supplemented with 5% fetal bovine serum, 1% penicillin/streptomycin and 2 mM L-glutamine. The cells were split when approximately 70-80% confluence were reached using 0.25% trypsin/EDTA. The cells were kept incubated at 37° C., 5% CO2, high humidity. The A549 cancer cell line was maintained by growing the cells in DMEM media supplemented with 10% fetal bovine serum, 1% penicillin/streptomycin and 2 mM L-glutamine. The cells were split when approximately 70-80% confluence were reached using 0.25% trypsin/EDTA. The cells were kept incubated at 37° C., 5% CO2, high humidity.
(§4) A2780 cancer cells were plated out at 5000 cells/well (±10%) on day one. A549 cancer cells were plated out at 2000 cells/well (±10%) on day two. On day three the test compound was dissolved in DMSO to give a stock solution of 20 mM and serial dilutions were carried out in DMSO to give concentrations of drug in DMSO of 10 mM, 2 mM, 1 mM, 0.2 mM and 0.02 mM. These were added to the wells to give the six testing concentrations and a final concentration of DMSO as 0.5% (v/v) with a total volume of drugs and media to be 200 μl. The cells were exposed to the drug for 24 hours then, after drug removal, fresh media was given and the cells were incubated for 96 hours recovery time. The remaining biomass was estimated by the sulforhodamine B assay. The cells were then fixed using 50 μl 50% (w/v) TCA and incubated at 4° C. for one hour. The biomass was stained with 100 μl 0.4% (w/v) sulforhodamine B in 1% acetic acid.
(§5) The dye was solubilised with Tris Buffer and the absorbance was read using a BMG Fluostar microplate reader at 595 nm. A baseline correction at 690 nm was subtracted from the values. The absorbance for 100% cell survival was based on the average absorbance for the 0.1 μM dosed triplicate for that drug. IC50 values were calculated using XL-Fit version 4.0.

A2780 cancer cell line = test: Inhibitory growth activity against A2780 cancer cell line (sulforhodamine B assay, Example 11); format: cell-based, human; details: 24 hours exposure, 96 hours recovery, 0.5% DMSO
Protocol: as §2, §3, §4, §5

[2] = tested on: cisplatin resistant cell line (A2780^cis); test: Cytotoxicity against cisplatin resistant cell line A2780cis (Example 10); format: cell-based, human
Protocol: as §1

| Substance | IC50 [1] | IC50 (A549 cancer cell line) | IC50 (A2780 cancer cell line) | IC50 ([2]; A2780cis cisplatin resistant cell line) | fold resistance ([2]; A2780cis versus A2780) |
| --- | --- | --- | --- | --- | --- |
| [(η-indan)Ru(2,9-Me2-phen-N,N)Cl]PF6 [Compound 3] | > 50 µM | – | – | – | – |
| [(η^6-DHA)Ru(bipydiol-N,N—H)Cl] [Compound 5] | – | 38.4 µM | 16.7 µM | – | – |
| [(η^6-THA)Ru(bipydiol-N,N—H)Cl] [Compound 4] | – | 21 µM | 7.9 µM | – | – |
| [(η^6-THN)Ru(bipydiol-N,N—H)Cl] [Compound 6] | – | 23.6 µM | 7.3 µM | – | – |
| [(η^6-biph)RuCl(bipy(OH)O^−)] [Compound 8] | – | – | 40 µM | – | – |
| [(η^6-bz)RuCl(bipy(OH)O^−)] [Compound 7] | – | – | 65 µM | – | – |
| [(η^6-indan)Ru(phenanthroline-N,N)Cl]PF6 [Compound 2] | 52 µM | – | – | – | – |
| [(η^6-indan)RuCl(bipydiol-N,N)Cl] [Compound 1] | 3 µM | 39 µM | 17.6 µM | 2.1 µM | 0.7 fold |
| [(η^6-p-terp)RuCl(bipy(OH)O—)] [Compound 9] | – | 62 µM | 21 µM | – | – |
